Measured values from patent publication US7112586B2, “Substituted diamine derivatives useful as motilin antagonists” (Ortho-McNeil Pharmaceutical, Inc., priority 2000, dated 2006).

Biological target: T1, Motilin Receptor (Oryctolagus cuniculus, UniProt G1T803)
T1 construct: The muscle tissue was homogenized in 10 volumes of 50 mM Tris-Cl; from tissue; host or cells: rabbit colon smooth muscle, crude membrane homogenate
Experiment: Motilin receptor binding, rabbit colon membranes, 125I porcine motilin
Parameters: Rabbit Colon % Inh / inhibition / % Inh (Rabbit colon): dose or concentration left out as unconfirmed
Settings: rabbit colon membranes; for inhibition: read-out: Rabbit Colon % Inh; for IC50: read-out: Rabbit Colon IC50

T1 sequence (G1T803 1-400): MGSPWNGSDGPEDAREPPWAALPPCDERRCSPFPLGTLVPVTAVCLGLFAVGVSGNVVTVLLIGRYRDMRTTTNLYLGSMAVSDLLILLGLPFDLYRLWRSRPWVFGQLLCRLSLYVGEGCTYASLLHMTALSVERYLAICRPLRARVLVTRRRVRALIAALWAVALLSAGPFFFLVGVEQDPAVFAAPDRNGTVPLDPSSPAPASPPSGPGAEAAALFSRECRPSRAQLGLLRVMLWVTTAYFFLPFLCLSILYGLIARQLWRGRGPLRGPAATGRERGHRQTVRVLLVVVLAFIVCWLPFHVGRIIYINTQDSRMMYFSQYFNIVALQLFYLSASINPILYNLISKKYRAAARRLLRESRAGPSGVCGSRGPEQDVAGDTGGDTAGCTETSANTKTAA

Row | SMILES | Rabbit Colon % Inh [%] | inhibition [%] | IC50 [nM]
1 | O=C([C@H](Cc1ccccc1)N(Cc1ccccc1)C(=O)C(Cl)(Cl)Cl)N(Cc1ccc(F)cc1)c1cccc(OCCN2CCOCC2)c1 [compound 151] | 1 |  | 
2 | O=C([C@H](Cc1ccccc1)N(Cc1ccccc1)C(=O)CCc1ccccc1)N(Cc1ccc(F)cc1)c1cccc(OCCN2CCOCC2)c1 [compound 152] | 0 |  | 
3 | O=C(C1CC=CCC1C(=O)N(Cc1ccc(F)cc1)c1cccc(OCCN2CCOCC2)c1)N(CCc1ccccc1)Cc1ccccc1 (stereo not shown) [compound 155] | 34 |  | 
4 | O=C(Nc1cccc(OCCN2CCOCC2)c1)C1=C(C(=O)N(CCc2ccccc2)Cc2ccccc2)CCC1 [compound 156] | 18 |  | 
5 | O=C(CCCC(=O)N(Cc1ccc(F)cc1)c1cccc(OCCN2CCOCC2)c1)N(CCCc1ccccc1)Cc1ccccc1 [compound 159] |  | 83 | 275
6 | O=C(CCC(=O)N(Cc1ccccc1F)c1cccc(OCCN2CCOCC2)c1)N(CCc1ccccc1)Cc1ccccc1 [compound 165] |  | 63 | 550
7 | COc1ccc(CN(C(=O)CCC(=O)N(CCc2ccccc2)Cc2ccccc2)c2cccc(OCCN3CCOCC3)c2)cc1 [compound 166] | 23 |  | 
8 | O=C(CCC(=O)N(Cc1ccc(C(F)(F)F)cc1)c1cccc(OCCN2CCOCC2)c1)N(CCc1ccccc1)Cc1ccccc1 [compound 167] | 42 |  | 
9 | O=C(CCC(=O)N(Cc1ccc(Cl)cc1)c1cccc(OCCN2CCOCC2)c1)N(CCc1ccccc1)Cc1ccccc1 [compound 168] | 36 |  | 
10 | O=C(CCCC(=O)N(Cc1ccc(C(F)(F)F)cc1)c1cccc(OCCN2CCOCC2)c1)N(CCc1ccccc1)Cc1ccccc1 [compound 172] | 40 |  | 
11 | O=C(CCCC(=O)N(Cc1ccc(F)cc1)c1cccc(O)c1)N(CCc1ccccc1)Cc1ccccc1 [compound 175] | 0 |  | 
12 | O=C1CCCN1CCOc1cccc(N(Cc2ccc(F)cc2)C(=O)CCCC(=O)N(CCc2ccccc2)Cc2ccccc2)c1 [compound 176] | 32 |  | 
13 | CN(C)CCCOc1cccc(N(Cc2ccc(F)cc2)C(=O)CCCC(=O)N(CCc2ccccc2)Cc2ccccc2)c1 [compound 187] |  | 100 | 229
14 | CC(CC(=O)N(CCc1ccccc1)Cc1ccccc1)CC(=O)N(Cc1ccc(F)cc1)c1cccc(OCCN2CCOCC2)c1 (stereo not shown) [compound 189] |  | 70 | 300
15 | O=C(CCCC(=O)N(Cc1ccc(F)cc1)c1ccc(OCCN2CCCC2)cc1)N(CCc1ccccc1)Cc1ccccc1 [compound 191] | 27 |  | 
16 | O=C(CCCC(=O)N(Cc1ccc(F)cc1)c1ccc(OCCN2CCOCC2)cc1)N(CCc1ccccc1)Cc1ccccc1 [compound 192] | 15 |  | 
17 | O=C(CCCC(=O)N(Cc1ccc(F)cc1)c1ccc(OCCCN2CCCCC2)cc1)N(CCc1ccccc1)Cc1ccccc1 [compound 193] | 7 |  | 
18 | CN(C)CCOc1ccc(N(Cc2ccc(F)cc2)C(=O)CCCC(=O)N(CCc2ccccc2)Cc2ccccc2)cc1 [compound 194] | 23 |  | 
19 | CCN(CC)CCOc1ccc(N(Cc2ccc(F)cc2)C(=O)CCCC(=O)N(CCc2ccccc2)Cc2ccccc2)cc1 [compound 195] | 62 |  | 
20 | O=C(CCCC(=O)N(Cc1ccc(F)cc1)c1cccc(OCCN2CCCC2)c1)N(CCc1ccccc1)Cc1cc(Cl)cc(Cl)c1 [compound 199] |  | 91 | 100
21 | O=C(CCCC(=O)N(Cc1ccc(F)cc1)c1cccc(OCCN2CCCC2)c1)N(CCc1ccccc1)Cc1cccc(C(F)(F)F)c1 [compound 200] |  | 92 | 41
22 | O=C(CCCC(=O)N(Cc1ccc(F)cc1)c1cccc(OCCN2CCOCC2)c1)N(CCc1ccccc1)Cc1cccc([N+](=O)[O-])c1 [compound 205] |  | 76 | 100
23 | Cc1ccc(OCCN2CCCC2)cc1N(Cc1ccc(F)cc1)C(=O)CCCC(=O)N(CCc1ccccc1)Cc1ccccc1 [compound 207] |  | 87 | 64
24 | Cc1c(OCCN2CCCC2)cccc1N(Cc1ccc(F)cc1)C(=O)CCCC(=O)N(CCc1ccccc1)Cc1cccc(C(=O)O)c1 [compound 215] |  | 100 | 84
25 | Cc1c(OCCN2CCOCC2)cccc1N(Cc1ccc(F)cc1)C(=O)CCCC(=O)N(CCc1ccccc1)Cc1ccccc1 [compound 234] |  | 86 | 218

Second part, the compound after the results:

Row | Rabbit Colon % Inh [%] | inhibition [%] | IC50 [nM] | SMILES
26 | 17 |  |  | O=C(c1ccc(F)cc1)N(Cc1cccc(C(=O)N2CCc3ccccc3C2c2ccccc2)c1)c1cccc(OCCN2CCOCC2)c1 (stereo not shown) [compound 142]
27 | 0 |  |  | O=C(CCCN(C(=O)c1ccc(F)cc1)c1cccc(OCCN2CCOCC2)c1)NC(c1ccccc1)c1ccccc1 [compound 143]
28 | 54 |  |  | O=C(CCCN(C(=O)c1ccc(F)cc1)c1cccc(OCCN2CCOCC2)c1)N(CCCc1ccccc1)Cc1ccccc1 [compound 144]
29 | 35 |  |  | CC(C)(C)CN(Cc1ccccc1)C(=O)CCCN(C(=O)c1ccc(F)cc1)c1cccc(OCCN2CCOCC2)c1 [compound 145]
30 | 32 |  |  | COc1ccc(CCN(Cc2ccccc2)C(=O)CCCN(C(=O)c2ccc(F)cc2)c2cccc(OCCN3CCOCC3)c2)cc1 [compound 146]
31 |  | 61 | 490 | COc1ccc(CCN(Cc2cccc(Cl)c2)C(=O)CCCN(C(=O)c2ccc(F)cc2)c2cccc(OCCN3CCOCC3)c2)cc1 [compound 147]
32 | 19 |  |  | O=C(c1ccc(F)cc1)N(CCCC(=O)N1CCc2ccccc2C1c1ccccc1)c1cccc(OCCN2CCOCC2)c1 (stereo not shown) [compound 148]
33 | 27 |  |  | O=C(CCCN(C(=O)c1ccc(F)cc1)c1cccc(OCCN2CCOCC2)c1)N1CCN(C(c2ccccc2)c2ccc(Cl)cc2)CC1 (stereo not shown) [compound 149]
34 | 0 |  |  | O=C(c1ccc(F)cc1)N(CC1CCC(N(Cc2ccccn2)C(=O)C(Cl)(Cl)Cl)CC1)c1cccc(OCCN2CCOCC2)c1 (stereo not shown) [compound 174]
35 | 2 |  |  | O=C(Nc1ccccc1)N(CC1CCC(N(Cc2ccccc2)C(=O)Cc2ccccc2)CC1)c1cccc(OCCN2CCOCC2)c1 (stereo not shown) [compound 183]
36 | 6 |  |  | COc1cccc(C(=O)N(Cc2cccc(Cl)c2)C2CCC(CN(C(=O)Nc3ccccc3)c3cccc(OCCN4CCOCC4)c3)CC2)c1 (stereo not shown) [compound 184]
37 | 0 |  |  | O=C(Nc1ccccc1)N(CC1CCC(N(Cc2cccc(Cl)c2)C(=O)c2ccco2)CC1)c1cccc(OCCN2CCOCC2)c1 (stereo not shown) [compound 185]
38 | 0 |  |  | COc1cccc(C(=O)N(Cc2cccc([N+](=O)[O-])c2)C2CCC(CN(C(=O)Nc3ccccc3)c3cccc(OCCN4CCOCC4)c3)CC2)c1 (stereo not shown) [compound 186]
39 |  | 100 | 107 | COc1cccc(CN(Cc2cccc(Cl)c2)C(=O)CCCC(=O)N(Cc2ccc(F)cc2)c2cccc(OCCN3CCCC3)c2)c1 [compound 198]
40 |  | 98 | 240 | O=C(CCCC(=O)N(Cc1ccc(F)cc1)c1cccc(OCCN2CCCC2)c1)N(CCN1CCCC1)Cc1cccc(Cl)c1 [compound 203]
41 |  | 60 | 770 | COc1cccc(CN(Cc2cccc(Cl)c2)C(=O)CCCC(=O)N(Cc2ccc(F)cc2)c2cccc(OCCN3CCOCC3)c2)c1 [compound 206]

Row | Rabbit Colon % Inh [%] | inhibition [%] | IC50 [nM] | SMILES
42 |  | 100 | 14 | O=C(c1ccc(F)cc1)N(CC1CCCC(N(Cc2cccc([N+](=O)[O-])c2)C(=O)C(Cl)(Cl)Cl)C1)c1cccc(OCCN2CCCC2)c1 (stereo not shown) [compound 211]
43 |  | 89 | 58 | O=C(c1ccc(F)cc1)N(CC1CCCC(N(Cc2cccc(Cl)c2)C(=O)C(Cl)(Cl)Cl)C1)c1cccc(OCCN2CCCC2)c1 (stereo not shown) [compound 212]
44 |  | 100 | 41 | O=C(Nc1ccccc1)N(CC1CCCC(N(Cc2cccc(Cl)c2)C(=O)C(Cl)(Cl)Cl)C1)c1cccc(OCCN2CCCC2)c1 (stereo not shown) [compound 223]
45 |  | 98 | 39 | O=C(Nc1ccccc1)N(CC1CCCC(N(Cc2ccccc2)C(=O)C(Cl)(Cl)Cl)C1)c1cccc(OCCN2CCCC2)c1 (stereo not shown) [compound 224]
46 |  | 93 | 21 | CC(C)(C)C(=O)N(Cc1ccccc1)[C@@H]1CCC[C@H](CN(C(=O)Nc2ccccc2)c2cccc(OCCN3CCCC3)c2)C1 [compound 225]
47 |  | 89 | 170 | CCN(CC)CCOc1cccc(N(CC2CCCC(N(Cc3cccc(Cl)c3)C(=O)C(C)(C)C)C2)C(=O)c2ccc(F)cc2)c1 (stereo not shown) [compound 233]
48 |  | 96 | 168 | CC(C)(C)C(=O)N(Cc1cccc(Cl)c1)C1CCCC(CN(C(=O)c2ccc(F)cc2)c2cccc(OCCN3CCCCC3)c2)C1 (stereo not shown) [compound 237]
49 |  | 98 | 97 | O=C(c1ccc(F)cc1)N(CC1CCCC(N(Cc2cccc(Cl)c2)C(=O)C(Cl)(Cl)Cl)C1)c1cccc(OCCN2CCCCC2)c1 (stereo not shown) [compound 238]
50 | 14 |  |  | COc1cccc(CC(=O)N(Cc2cccc(Cl)c2)C2CCCC(CN(C(=O)c3ccc(F)cc3)c3cccc(OCCN4CCOCC4)c3)C2)c1 (stereo not shown) [compound 241]
51 | 36 |  |  | O=C(c1ccc(F)cc1)N(CC1CCCC(N(Cc2cccc(Cl)c2)C(=O)CCC2CCCC2)C1)c1cccc(OCCN2CCOCC2)c1 (stereo not shown) [compound 242]
52 | 35 |  |  | COc1ccc(CC(=O)N(Cc2cccc(Cl)c2)C2CCCC(CN(C(=O)c3ccc(F)cc3)c3cccc(OCCN4CCOCC4)c3)C2)cc1 (stereo not shown) [compound 243]
53 | 42 |  |  | O=C(c1ccc(F)cc1)N(CC1CCCC(N(Cc2cccc(Cl)c2)C(=O)Cc2ccccc2)C1)c1cccc(OCCN2CCOCC2)c1 (stereo not shown) [compound 244]
54 | 40 |  |  | COc1ccc(CC(=O)N(Cc2cccc(Cl)c2)C2CCCC(CN(C(=O)c3ccc(F)cc3)c3cccc(OCCN4CCOCC4)c3)C2)cc1OC (stereo not shown) [compound 245]
55 | 73 |  |  | CC(C)(C)CC(=O)N(Cc1cccc(Cl)c1)C1CCCC(CN(C(=O)c2ccc(F)cc2)c2cccc(OCCN3CCOCC3)c2)C1 (stereo not shown) [compound 246]
56 |  | 86 | 760 | O=C(c1ccc(F)cc1)N(CC1CCCC(N(Cc2cccc(Cl)c2)C(=O)Cc2cccs2)C1)c1cccc(OCCN2CCOCC2)c1 (stereo not shown) [compound 248]
